Results: PubChem BioAssay AID1918995 (Molecular Pharmacology Branch, DTP, NCI, 2023)

Tested on: 324938-238-R-J1-PDC complex spheroid growth, % test/control
Test: Anticancer human tumor 324938-238-R-J1-PDC patient-derived bladder carcinoma cell line growth inhibition [AhR]
Conditions: for viability, T/C: stronger effect = lower value
Outline: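 Spheroids combined tumor cells with HUVEC endothelial cells and human MSCs as stroma. AhR antagonists were paired with standard or investigational drugs, each dosed in half-log steps down from near clinical Cmax, or from 10 microM where Cmax was unknown.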

[1] = curve of first compound, second compound 0.1 µM
[2] = curve of first compound, second compound 0.316 µM
[3] = curve of first compound, second compound 1 µM
[4] = curve of first compound, second compound 3.16 µM
[5] = curve of first compound, second compound 10 µM
[6] = second compound 0.1 µM, first compound 0.000949 µM
[7] = second compound 0.1 µM, first compound 0.003 µM
[8] = second compound 0.1 µM, first compound 0.00949 µM
[9] = second compound 0.1 µM, first compound 0.03 µM
[10] = second compound 0.1 µM, first compound 0.0949 µM
[11] = second compound 0.1 µM, first compound 0.3 µM
[12] = second compound 0.316 µM, first compound 0.000949 µM
[13] = second compound 0.316 µM, first compound 0.003 µM
[14] = second compound 0.316 µM, first compound 0.00949 µM
[15] = second compound 0.316 µM, first compound 0.03 µM
[16] = second compound 0.316 µM, first compound 0.0949 µM
[17] = second compound 0.316 µM, first compound 0.3 µM
[18] = second compound 1 µM, first compound 0.000949 µM
[19] = second compound 1 µM, first compound 0.003 µM
[20] = second compound 1 µM, first compound 0.00949 µM
[21] = second compound 1 µM, first compound 0.03 µM
[22] = second compound 1 µM, first compound 0.0949 µM
[23] = second compound 1 µM, first compound 0.3 µM
[24] = second compound 3.16 µM, first compound 0.000949 µM
[25] = second compound 3.16 µM, first compound 0.003 µM
[26] = second compound 3.16 µM, first compound 0.00949 µM
[27] = second compound 3.16 µM, first compound 0.03 µM
[28] = second compound 3.16 µM, first compound 0.0949 µM
[29] = second compound 3.16 µM, first compound 0.3 µM
[30] = second compound 10 µM, first compound 0.000949 µM
[31] = second compound 10 µM, first compound 0.003 µM
[32] = second compound 10 µM, first compound 0.00949 µM
[33] = second compound 10 µM, first compound 0.03 µM
[34] = second compound 10 µM, first compound 0.0949 µM
[35] = second compound 10 µM, first compound 0.3 µM
[36] = second compound 0.1 µM, first compound 0.0316 µM
[37] = second compound 0.1 µM, first compound 0.1 µM
[38] = second compound 0.316 µM, first compound 0.0316 µM
[39] = second compound 0.316 µM, first compound 0.1 µM
[40] = second compound 1 µM, first compound 0.0316 µM
[41] = second compound 1 µM, first compound 0.1 µM
[42] = second compound 3.16 µM, first compound 0.0316 µM
[43] = second compound 3.16 µM, first compound 0.1 µM
[44] = second compound 10 µM, first compound 0.0316 µM
[45] = second compound 10 µM, first compound 0.1 µM
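Also: spheroids exposed to agents for seven days before viability read.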

For CC(C)CC(NC(=O)C(Cc1ccccc1)NC(=O)c1cnccn1)B(O)O (stereo unspecified) + Cc1cncc(-c2nc(NCCc3c[nH]c4ccccc34)c3ncn(C(C)C)c3n2)c1, the IC50 [1] was 4.75 nM, the IC50 [2] was 4.16 nM and the IC50 [3] was 4.21 nM. For the same compound, the IC50 [4] was 4.41 nM, the IC50 [5] was < 0.949 nM and the viability, T/C [6] was 140%. The viability, T/C [7] was 82.9%, the viability, T/C [8] was 0.38% and the viability, T/C [9] was 0.6%. The viability, T/C [10] was 0.37%, the viability, T/C [11] was 0.39% and the viability, T/C [12] was 123%. It also gave a viability, T/C [13] of 69.4%, a viability, T/C [14] of 0.83% and a viability, T/C [15] of 2.26%. For the same compound, the viability, T/C [16] was 1.05%, the viability, T/C [17] was 0.73% and the viability, T/C [18] was 107%. The viability, T/C [19] was 70.6%, the viability, T/C [20] was 0.67% and the viability, T/C [21] was 0.27%. It also gave a viability, T/C [22] of 0.57%, a viability, T/C [23] of 0.35% and a viability, T/C [24] of 109%. For the same compound, the viability, T/C [25] was 74.3%, the viability, T/C [26] was 1.45% and the viability, T/C [27] was 0.48%. The viability, T/C [28] was 0.28%, the viability, T/C [29] was 0.4% and the viability, T/C [30] was 5.75%. The viability, T/C [31] was 2.91%, the viability, T/C [32] was 1.36% and the viability, T/C [33] was 0.48%. For the same compound, the viability, T/C [34] was 0.49% and the viability, T/C [35] was 0.42%.
For Cc1cncc(-c2nc(NCCc3c[nH]c4ccccc34)c3ncn(C(C)C)c3n2)c1, the IC50 (compound alone, run of 07/18/2022) was 5.31 µM [middle of 23 runs].
CC(C)CC(NC(=O)C(Cc1ccccc1)NC(=O)c1cnccn1)B(O)O (stereo unspecified) + Cc1ccccc1N=Nc1ccc(NC(=O)c2ccnn2C)c(C)c1 gave an IC50 [1] of 5.19 nM, an IC50 [2] of 4.9 nM and an IC50 [3] of 4.83 nM. It also gave an IC50 [4] of 4.38 nM, an IC50 [5] of 4.51 nM and a viability, T/C [6] of 97.5%. The viability, T/C [7] was 94.3%, the viability, T/C [8] was 1.29% and the viability, T/C [9] was 0.07%. The viability, T/C [10] was 0.09%, the viability, T/C [11] was 0.27% and the viability, T/C [12] was 92.3%. The viability, T/C [13] was 84.6%, the viability, T/C [14] was 3.23% and the viability, T/C [15] was 0.04%. The viability, T/C [16] was 0.05%, the viability, T/C [17] was 0.19% and the viability, T/C [18] was 95.1%. For the same compound, the viability, T/C [19] was 84.1%, the viability, T/C [20] was 1.49% and the viability, T/C [21] was 0.04%. The viability, T/C [22] was 0.07%, the viability, T/C [23] was 0.17% and the viability, T/C [24] was 84.2%. For the same compound, the viability, T/C [25] was 73.4%, the viability, T/C [26] was 2.32% and the viability, T/C [27] was 0.06%. It also gave a viability, T/C [28] of 0.06%, a viability, T/C [29] of 0.19% and a viability, T/C [30] of 85.9%. The viability, T/C [31] was 76.1%, the viability, T/C [32] was 2.47% and the viability, T/C [33] was 0.24%. For the same compound, the viability, T/C [34] was 0.36% and the viability, T/C [35] was 0.32%.
In the case of CC[C@@]1(O)C(=O)OCc2c1cc1n(c2=O)Cc2cc3c(CN(C)C)c(O)ccc3nc2-1 + Cc1ccccc1N=Nc1ccc(NC(=O)c2ccnn2C)c(C)c1, the IC50 [1] is reported as 19.6 nM, the IC50 [2] is reported as 20.7 nM and the IC50 [3] is reported as 18.5 nM. For the same compound, the IC50 [4] was 17 nM, the IC50 [5] was 20 nM and the viability, T/C (second compound 0.1 µM, first compound 0.000316 µM) was 102%. It also gave a viability, T/C (second compound 0.1 µM, first compound 0.001 µM) of 107%, a viability, T/C (second compound 0.1 µM, first compound 0.00316 µM) of 88.9% and a viability, T/C (second compound 0.1 µM, first compound 0.01 µM) of 74.6%. For the same compound, the viability, T/C [36] was 32.8%, the viability, T/C [37] was 16.2% and the viability, T/C (second compound 0.316 µM, first compound 0.000316 µM) was 91.9%. For the same compound, the viability, T/C (second compound 0.316 µM, first compound 0.001 µM) was 101%, the viability, T/C (second compound 0.316 µM, first compound 0.00316 µM) was 94.8% and the viability, T/C (second compound 0.316 µM, first compound 0.01 µM) was 70.7%. It also gave a viability, T/C [38] of 38.1%, a viability, T/C [39] of 17.4% and a viability, T/C (second compound 1 µM, first compound 0.000316 µM) of 86.8%. The viability, T/C (second compound 1 µM, first compound 0.001 µM) was 98.5%, the viability, T/C (second compound 1 µM, first compound 0.00316 µM) was 86.6% and the viability, T/C (second compound 1 µM, first compound 0.01 µM) was 66%. For the same compound, the viability, T/C [40] was 36%, the viability, T/C [41] was 15.7% and the viability, T/C (second compound 3.16 µM, first compound 0.000316 µM) was 86.2%. It also gave a viability, T/C (second compound 3.16 µM, first compound 0.001 µM) of 86.3%, a viability, T/C (second compound 3.16 µM, first compound 0.00316 µM) of 87% and a viability, T/C (second compound 3.16 µM, first compound 0.01 µM) of 61.9%. It also gave a viability, T/C [42] of 34.7%, a viability, T/C [43] of 15.6% and a viability, T/C (second compound 10 µM, first compound 0.000316 µM) of 83.9%. The viability, T/C (second compound 10 µM, first compound 0.001 µM) was 88.3%, the viability, T/C (second compound 10 µM, first compound 0.00316 µM) was 73.6% and the viability, T/C (second compound 10 µM, first compound 0.01 µM) was 63.9%. It also gave a viability, T/C [44] of 41.3% and a viability, T/C [45] of 18.7%.
With CC1COCCN1c1cc(C2(S(C)(=N)=O)CC2)nc(-c2ccnc3[nH]ccc23)n1 (stereo unspecified) + CC(CO)NC(=O)c1cc(-c2ccc(Cl)cc2)nn(-c2cnn(C)c2)c1=O the IC50 [1] was 2180 nM, the IC50 [2] was 1580 nM and the IC50 [3] was 2110 nM. The IC50 [4] was 1760 nM, the IC50 [5] was 916 nM and the viability, T/C [36] was 95.6%. It also gave a viability, T/C [37] of 109%, a viability, T/C (second compound 0.1 µM, first compound 0.316 µM) of 89.6% and a viability, T/C (second compound 0.1 µM, first compound 1 µM) of 69.8%. The viability, T/C (second compound 0.1 µM, first compound 3.16 µM) was 41.4%, the viability, T/C (second compound 0.1 µM, first compound 10 µM) was 19.8% and the viability, T/C [38] was 103%. The viability, T/C [39] was 97.5%, the viability, T/C (second compound 0.316 µM, first compound 0.316 µM) was 91.5% and the viability, T/C (second compound 0.316 µM, first compound 1 µM) was 57.2%. For the same compound, the viability, T/C (second compound 0.316 µM, first compound 3.16 µM) was 37.3%, the viability, T/C (second compound 0.316 µM, first compound 10 µM) was 20.6% and the viability, T/C [40] was 89.4%. The viability, T/C [41] was 95.9%, the viability, T/C (second compound 1 µM, first compound 0.316 µM) was 98.1% and the viability, T/C (second compound 1 µM, first compound 1 µM) was 72%. It also gave a viability, T/C (second compound 1 µM, first compound 3.16 µM) of 38.6%, a viability, T/C (second compound 1 µM, first compound 10 µM) of 22.5% and a viability, T/C [42] of 81.3%. It also gave a viability, T/C [43] of 77.9%, a viability, T/C (second compound 3.16 µM, first compound 0.316 µM) of 76.3% and a viability, T/C (second compound 3.16 µM, first compound 1 µM) of 65.6%. For the same compound, the viability, T/C (second compound 3.16 µM, first compound 3.16 µM) was 34%, the viability, T/C (second compound 3.16 µM, first compound 10 µM) was 16.7% and the viability, T/C [44] was 70.3%. It also gave a viability, T/C [45] of 73.6%, a viability, T/C (second compound 10 µM, first compound 0.316 µM) of 68.8% and a viability, T/C (second compound 10 µM, first compound 1 µM) of 47.3%. For the same compound, the viability, T/C (second compound 10 µM, first compound 3.16 µM) was 28.8% and the viability, T/C (second compound 10 µM, first compound 10 µM) was 20%.
